One data set relates to skin. Kind of data set: Patch test (finn chamber) for skin compatibility: primary irritation and allergic response. Type of data set: in vivo, human. The following applies: 25 healthy volunteers; about 20 μg solid product on the back, finn chamber 48 hours; read 15 mins, 1 hr and 24 hrs after removal. How it is done: The skin compatibility of the bacteriostat according to the invention, in terms of anergic response and of primary Irritation. was tested with the following patch tests.
A panel of 25 healthy volunteers was subjected to the application onto the back of about 20 μg of solid product with the use of a “finn chamber” (patch test). After 48 hours the “finn chamber” was removed and the skin reactions after 15 mins, 1 hr and 24 hrs from removal were clinically evaluated.

The next data set concerns Pseudomonas aeruginosa. As to the kind of experiment: MIC (Minimal Inhibition Concentration) test on bacterial colonies. It is filed as cell-based. The following applies: read-out: MIC (Minimal Inhibition Concentration). How it is done: (§1) With the purpose of evaluating the bacteriostatic activity of the bacteriostats of the invention, the following MIC (Minimal Inhibition Concentration) tests were carried out on bacterial colonies of “Pseudomonas aeruginosa” (Pa) and of “Staphylococcus aureus” (Sa), respectively with pure phenoxyethanol of formula (IV) and with phenoxyethanol ester of PCA of formula (V) of the invention.

For the next data set, the system named is Staphylococcus aureus. The data set is described as above. To be noted: read-out: MIC (Minimal Inhibition Concentration). Type of data set: cell-based. How it is done:
as §1

Converted amounts (≈) assume the structure as drawn. Read-outs that look alike come from different tables or passages of the source.

As for `O=C1CCC(C(=O)OCCOc2ccccc2)N1` (stereo not shown) [PCA Ester, phenoxyethanol ester of PCA], in the data set on skin, the “skin irritation (primary irritation) in patch test” value is “not to be irritating”. Besides, the “skin sensitization in patch test” value in the data set with skin is “did not sensitize the skin”. In addition, the MIC in the data set on Pseudomonas aeruginosa (Pseudomonas aeruginosa (Pa)) and in the data set on Staphylococcus aureus (Staphylococcus aureus (Sa)) was 1000 µg/mL (≈ 4.01 mM) in each case.
Turning to `OCCOc1ccccc1` [phenoxyethanol, 2-phenoxyethanol, reference compound], in the data set with skin, the “skin irritation (primary irritation) in patch test” value is on record as “moderately irritating”. Besides, the MIC in the data set with Pseudomonas aeruginosa (Pseudomonas aeruginosa) was 3200 µg/mL (≈ 23.2 mM); in the data set with Staphylococcus aureus (Staphylococcus aureus), 6400 µg/mL (≈ 46.3 mM).

Values taken from US20050182124A1, “Ester bacteriostat for stabilizing cosmetics” (VAMA FARMACOSMETICA S.r.l., priority 2004, published 2005).
